Results taken from ChEMBL document CHEMBL1201862, “PubChem BioAssay data set” (2004).
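A five-concentration, 48-hour dose response in 96-well plates underlies each endpoint, interpolated linearly between surrounding concentrations. GI50 = concentration required for 50% inhibition of growth.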 Calls of active or inactive are those of the source. No stated cut-off is given here; in the data, active = GI50 up to about 1.1 µM and inactive = higher.

How the values were obtained:
Assay in all cases: growth of human tumour cells (NCI), 48 h
[1] = tested on: KM12
[2] = tested on: KM-20L2
[3] = tested on: HOP-92
[4] = tested on: OVCAR-5
[5] = tested on: M19-MEL
[6] = tested on: RXF 393
[7] = tested on: TK-10
[8] = tested on: A498
[9] = tested on: SW-620
[10] = tested on: SR
[11] = tested on: 786-0
[12] = tested on: DMS-273
[13] = tested on: UO-31
[14] = tested on: NCI-H460
[15] = tested on: HCT-116
[16] = tested on: M14
[17] = tested on: OVCAR-3
[18] = tested on: RPMI-8226
[19] = tested on: NCI/ADR-RES

Measured: GI50

COc1cc(OC)c(C#N)c(OC)c1C
inactive: [1] > 100 µM | [2] > 100 µM | [3] > 100 µM | [4] 98.4 µM | [5] > 100 µM | [6] > 100 µM | [7] > 100 µM | [8] > 100 µM | [9] > 100 µM | [10] > 100 µM | [11] > 100 µM | [12] > 100 µM | [13] > 100 µM | [14] > 100 µM

CCOC(=O)[C@H]1Nc2ccc(Cl)cc2[C@H]2OCC[C@@H]12
inactive: [1] > 100 µM | [2] > 100 µM | [4] > 100 µM | [5] > 100 µM | [6] > 100 µM | [7] > 100 µM | [8] > 100 µM | [9] > 100 µM | [15] > 100 µM | [11] > 100 µM | [16] > 100 µM | [12] > 100 µM | [17] > 100 µM | [14] > 100 µM

CC1(c2ccc(Cl)cc2)C2C(=O)NC(=O)C1C(=O)NC2=O (stereo not given)
inactive: [1] > 100 µM | [2] 56.5 µM | [3] > 100 µM | [4] > 100 µM | [5] > 100 µM | [6] > 100 µM | [7] > 100 µM | [8] > 100 µM | [9] > 100 µM | [11] > 100 µM | [16] > 100 µM | [12] > 100 µM | [18] > 100 µM | [13] > 100 µM | [17] > 100 µM | [14] > 100 µM

CC(C)=CC(=O)OC1C2C(C)C(=O)OC2C(O)C(C)C2C=CC(=O)C21C (stereo not given)
inactive: [1] 4.03 µM | [19] 4.3 µM | [2] 3.42 µM | [3] 4.09 µM | [4] 7.83 µM | [5] 3.01 µM | [6] 1.28 µM | [8] 2.05 µM | [9] 1.68 µM | [15] 1.66 µM | [12] 4.25 µM | [18] 1.48 µM | [13] 6.03 µM | [17] 2.75 µM | [14] 1.96 µM

CN1OC(=O)N(C)C1c1ccccc1 (stereo not given)
inactive: [1] > 100 µM | [19] > 100 µM | [2] > 100 µM | [3] > 100 µM | [4] > 100 µM | [5] > 100 µM | [6] > 100 µM | [8] > 100 µM | [9] > 100 µM | [15] > 100 µM | [12] > 100 µM | [18] > 100 µM | [13] > 100 µM | [17] > 100 µM | [14] > 100 µM

CC(C)CCCCCCCCCCCCC(=O)NCC(=O)NC1C(C)OC(Nc2ncnc3c2ncn3C)C(O)C1O (stereo not given)
inactive: [1] 5.47 µM | [19] > 100 µM | [2] 4.02 µM | [3] 2.41 µM | [4] 7.33 µM | [5] 11.4 µM | [6] 2.89 µM | [8] 4.15 µM | [9] 5.37 µM | [15] 1.54 µM | [12] 1.81 µM | [18] 2.43 µM | [13] 1.9 µM | [17] 3.52 µM | [14] 3.09 µM

O=C(Nc1ccccc1)C(=O)C(C(=O)c1ccccc1F)C1OC(=O)c2ccccc21 (stereo not given)
inactive: [1] 26.9 µM | [2] 33.6 µM | [3] > 100 µM | [4] 81.5 µM | [5] 30.1 µM | [6] 35.8 µM | [7] 69.2 µM | [8] 89.3 µM | [9] 41.9 µM | [10] 21.5 µM | [15] 18.9 µM | [16] 44 µM | [12] 31.3 µM | [18] 35.1 µM | [13] 47.3 µM | [14] 37.7 µM

Cc1cc(O)nc(NNC(C#N)c2cccc(O)c2)n1 (stereo not given)
inactive: [1] > 100 µM | [2] > 100 µM | [3] > 100 µM | [4] > 100 µM | [5] > 100 µM | [6] > 100 µM | [7] > 100 µM | [9] > 100 µM | [10] > 100 µM | [15] > 100 µM | [11] > 100 µM | [16] > 100 µM | [12] > 100 µM | [18] > 100 µM | [13] > 100 µM | [17] > 100 µM | [14] > 100 µM

COc1ccc(C2C(Cl)C(=O)N2NC(=O)c2ccc(N)cc2)cc1 (stereo not given)
inactive: [1] > 100 µM | [2] > 100 µM | [3] > 100 µM | [4] > 100 µM | [5] > 100 µM | [7] > 100 µM | [8] > 100 µM | [9] > 100 µM | [15] > 100 µM | [11] > 100 µM | [16] > 100 µM | [12] > 100 µM | [18] > 100 µM | [13] > 100 µM | [17] > 100 µM | [14] > 100 µM

CC1(n2nc(-c3ccccc3)n(-c3ccccc3)c2=O)CSC1
inactive: [1] > 100 µM | [2] > 100 µM | [3] > 100 µM | [4] > 100 µM | [5] > 100 µM | [6] > 100 µM | [7] > 100 µM | [8] 38.2 µM | [9] > 100 µM | [10] > 100 µM | [15] > 100 µM | [11] > 100 µM | [16] > 100 µM | [12] 82.4 µM | [18] > 100 µM | [13] > 100 µM | [14] > 100 µM

COc1ccc(C2Oc3cc(OC)c(O)cc3[C@@H]2C)cc1 (stereo not given in full)
inactive: [1] 45 µM | [2] 49.5 µM | [3] 15.3 µM | [4] > 100 µM | [5] > 10 µM | [6] 28.2 µM | [7] 45.8 µM | [8] > 100 µM | [9] 17.1 µM | [15] 12.8 µM | [11] 17.1 µM | [16] 19.1 µM | [12] 29.4 µM | [18] 22.3 µM | [13] 13.8 µM | [17] 26.5 µM | [14] 57.9 µM

CCOC(OC1=C(C#N)CCCC1)C(CC)[Se]c1ccccc1[N+](=O)[O-] (stereo not given)
inactive: [1] 21.1 µM | [2] 17.2 µM | [3] 18.4 µM | [4] 31.4 µM | [5] 19.1 µM | [6] 28.8 µM | [7] 76.2 µM | [8] > 100 µM | [10] 16.7 µM | [15] 19.4 µM | [11] 17.8 µM | [16] 17.9 µM | [12] 20.9 µM | [18] 19.5 µM | [13] 26.8 µM | [17] 26.5 µM | [14] 34.2 µM

O=Cc1cn(C(=O)c2ccccc2)c2ccccc12
inactive: [1] 64 µM | [2] > 100 µM | [4] > 100 µM | [5] > 100 µM | [6] 53.5 µM | [7] > 100 µM | [8] > 100 µM | [9] > 100 µM | [15] 43.2 µM | [11] > 100 µM | [16] > 100 µM | [12] > 100 µM | [18] 37.2 µM | [13] 36.6 µM | [17] > 100 µM | [14] > 100 µM
